# Tested on: Ba/F3 cells (IL-3 dependent murine pro-B cell line)
# Test: Proliferation assay (MTT), parental Ba/F3 cells
# Assay type: cell-based
# Conditions: Mus musculus, 48 h, drug concentrations 0.005-10 μM, read-out: BaF3
# Description: Interleukin-3 (IL-3) dependent murine pro-B cell line, Ba/F3, and murine myeloid precursor cell line, 32D, were maintained in RPMI-1640 medium supplemented with L-Glutamine, 10% FBS and 10 U/ml recombinant murine IL-3 (Roche). Mo7e human megakarioblastic cell line was grown in RPMI-1640 medium supplemented with L-Glutamine, 20% FBS and 5 ng/ml recombinant human granulocyte macrophage cell stimulating factor (GM-CSF) (R&D Systems) or 200 ng/ml stem cell factor (SCF) (Biosource).
# Cells (0.3-0.6×10^6/ml) were plated in duplicate or triplicate in 96-well plates containing increasing drug concentrations (0.005-10 μM). After incubation at 37° C. in 5% CO2 for 48 h, the effect of the compounds on cell viability was determined by MTT (Promega) colorimetric dye reduction method. Inhibition of cell proliferation was calculated as a percentage of growth of DMSO treated cells, and IC50 values were determined with Microsoft Excel XLfit3.
row,Compound,IC50
1,CCN(CC)S(=O)(=O)c1ccc(-c2ncnc(Nc3ccc(OC(F)(F)F)cc3)c2C)cc1,> 10 µM
2,Cc1cccc(-n2cc3c(Nc4ccc(OC(F)(F)F)cc4)ncnc3n2)c1C,> 10 µM
3,O=C1c2ccccc2C(=O)N1CCn1ncc2c(Nc3ccc(OC(F)(F)F)cc3)ncnc21,> 10 µM
4,FC(F)(F)Oc1ccc(Nc2ncnc3c2cnn3-c2cc(C(F)(F)F)ccn2)cc1,> 10 µM
5,NC(=O)Cn1cc2c(Nc3ccc(OC(F)(F)F)cc3)ncnc2n1,> 3.3 µM
6,COC[C@H]1CCCN1C(=O)c1cc2c(Nc3ccc(OC(F)(F)F)cc3)ncnc2n1C,> 10 µM
7,FC(F)(F)Oc1ccc(Nc2ncnc3c2cnn3C2CCCCC2)cc1,9.3 µM
8,Cc1c(Nc2ccc(OC(F)(F)F)cc2)ncnc1-c1cnn(Cc2ccccc2)c1,9.9 µM
9,FC(F)(F)Oc1ccc(Nc2ncnc3nn(CCc4ccccc4)cc23)cc1,> 10 µM
10,Cn1c(C(=O)N2CCCC(CO)C2)cc2c(Nc3ccc(OC(F)(F)F)cc3)ncnc21 (centres unmarked),7.29 µM
11,O=C1Cc2c(ncnc2Nc2ccc(OC(F)(F)F)cc2)N1,> 10 µM
12,Cc1c(Nc2ccc(OC(F)(F)F)cc2)ncnc1-c1cnn(C)c1,> 10 µM
13,Cn1cnc2ncnc(Nc3ccc(OC(F)(F)F)cc3)c21,> 10 µM
14,CN(C)C1CCN(C(=O)c2ccc3c(Nc4ccc(OC(F)(F)F)cc4)ncnc3c2)C1 (centres unmarked),> 10 µM
15,CCCCn1cc2c(Nc3ccc(OC(F)(F)F)cc3)ncnc2n1,> 10 µM
16,CN1CCCN(C(=O)c2ccc3c(Nc4ccc(OC(F)(F)F)cc4)ncnc3c2)CC1,6.98 µM
17,CC(C)S(=O)(=O)c1ccc(-c2cc(Nc3ccc(OC(F)(F)F)cc3)ncn2)cc1,> 10 µM
18,CN1C(=O)Cc2c(Nc3ccc(OC(F)(F)F)cc3)ncnc21,> 10 µM
19,FC(F)(F)Oc1ccc(Nc2ncnc3nn(C4CCCCC4)cc23)cc1,> 10 µM
20,Cc1cccc(-n2ncc3c(Nc4ccc(OC(F)(F)F)cc4)ncnc32)c1C,> 10 µM
21,FC(F)(F)Oc1ccc(Nc2ncnc3c2cnn3Cc2ccncc2)cc1,> 10 µM

row,Compound,IC50
1,NS(=O)(=O)c1cccc(-n2ncc3c(Nc4ccc(OC(F)(F)F)cc4)ncnc32)c1,1.8 µM
2,CC(C)(C)n1ncc2c(Nc3ccc(OC(F)(F)F)cc3)ncnc21,7.3 µM
3,Cc1c(Nc2ccc(OC(F)(F)F)cc2)ncnc1-c1cnn(CC(C)C)c1,1.46 µM
4,"O=[N+]([O-])c1cccc(-c2cn3cnc(Nc4ccc(OC(F)(F)F)cc4)cc3n2)c1 [2-(3-nitrophenyl)-N-(4-(trifluoromethoxy)phenyl)imidazo[1,2-c]pyrimidin-7-amine]",9.6 µM
5,NC(=O)CCn1ncc2c(Nc3ccc(OC(F)(F)F)cc3)ncnc21,8.7 µM
6,O=C(c1ccc2c(Nc3ccc(OC(F)(F)F)cc3)ncnc2c1)N1CCC(O)CC1,> 10 µM
7,NC(=O)C1CCN(C(=O)c2ccc3c(Nc4ccc(OC(F)(F)F)cc4)ncnc3c2)CC1,> 10 µM
8,Fc1ccccc1-n1ncc2c(Nc3ccc(OC(F)(F)F)cc3)ncnc21,> 10 µM
9,NCCn1ncc2c(Nc3ccc(OC(F)(F)F)cc3)ncnc21,> 10 µM
10,OC[C@H]1OC(n2ccc3c(Nc4ccc(OC(F)(F)F)cc4)ncnc32)[C@H](O)[C@@H]1O (some centres unmarked),> 10 µM
11,O=C(c1cc2c(Nc3ccc(OC(F)(F)F)cc3)ncnc2s1)N1CCN(N2CCCC2)CC1,5.77 µM
12,CCS(=O)(=O)n1ncc2c(Nc3ccc(OC(F)(F)F)cc3)ncnc21,7 µM
13,FC(F)(F)Oc1ccc(Nc2ncnc3c2cnn3CC2CCOC2)cc1 (centres unmarked),> 10 µM
14,COc1ccc(Cn2ccc3c(Nc4ccc(OC(F)(F)F)cc4)ncnc32)cc1,> 10 µM
15,FC(F)(F)Oc1ccc(Nc2ncnc3nn(-c4cc(C(F)(F)F)ccn4)cc23)cc1,> 10 µM
16,FC(F)(F)Cn1ncc2c(Nc3ccc(OC(F)(F)F)cc3)ncnc21,> 10 µM
17,FC(F)(F)Oc1ccc(Nc2ncnc3c2cnn3Cc2ccccc2)cc1,> 10 µM
18,O=C(c1ccc2c(Nc3ccc(OC(F)(F)F)cc3)ncnc2c1)N1CCC(Br)CC1,7.42 µM
19,FC(F)(F)Oc1ccc(Nc2ncnc3c2cnn3CCc2ccccc2)cc1,> 10 µM
20,CN(C)CC(C#N)n1ncc2c(Nc3ccc(OC(F)(F)F)cc3)ncnc21 (centres unmarked),> 10 µM
